Data reported in patent US8236858B2, “Substituted aryl-indole compounds and their kynurenine/kynuramine-like metabolites as therapeutic agents” (Neurim Pharmaceuticals (1991) Ltd., priority 2006, dated 2012).

What was measured:
NMDA-activated currents = experiment: Electrophysiological characterisation of NMDA-activated currents in freshly isolated hippocampal neurones (whole-cell patch clamp); format: cell-based, Wistar rats; conditions: for % Inhibition Peak Current / % Inhibition Steady State Current: 1 μM substance, 10 μM glycine, 300 μM L-aspartate, holding potential −70 mV, mean of at least 4 cells; for blocking activity on NMDA-activated currents (in words): summary of Table 3, 1 μM
Experimental: Isolation of hippocampal neurons: Wistar rats (12-14 days) were decapitated without anesthesia and the hippocampus was removed. It was manually cut into slices (0.2-0.4 mm), in a solution containing (mM): 150 NaCl; 5 KCL; 1.25 NaH2PO4; 2 CaCl2; 2 MgCl2; 26 NaHCO3; 20 glucose. Slices were preincubated in this solution for 30 min at room temperature. The enzymatic treatment proceeded in the same solution with lower Ca^2+ concentration (0.5 mm) containing 0.4 mg/ml protease from aspergillus oryzae. The incubation in the enzyme solution proceeded at 32° C. within 10 min. Slices were kept subsequently in enzyme-free solution containing normal Ca^2±concentration and used within 6-8 h for obtaining isolated neurons. Throughout the entire procedure the solutions were continuously saturated with a 95% O2 and 5% CO2 gas mixture to maintain pH of 7.4. For cell dissociation the slice was transferred into the extracellular solution containing (mM): 150 NaCl; 5 KCl; 2 CaCl2; 10 n-2-hydroxyethylpiperazine-n′-2-ethanesulphonic acid (Hepes); pH adjusted with NaOH to 7.4. Single cells were isolated from CA and CA3 zones of hippocampal slices by vibrodissociation method. […] After isolation they were usually suitable for the recording for 1-2 h.
Salines and chemicals: The contents of the extracellular solution was as follows (in mM): 130 NaCl, 5KCl, 2CaCl2, 20 n-2-hydroxyethylpiperazine-n′-2-ethansulfonic acid (Hepes); 0.1 μm TTX, 10 μm glycine, […] 1-aspartate; pH was adjusted with NaOH to 7.4.
The contents of the intracellular solution were as follows (in mM): 110 CsF, 20 Tris-HCl (pH=7.2). L-aspartate and glycine solutions were prepared on the day of experiment.
The tested substances were dissolved in DMSO.
Current recording and data analysis: The drug-containing solutions were applied by the fast “concentration clamp” method using “jumping table” set-up. The currents were recorded with patch clamp technique in the whole-cell configuration. Recording of the currents was performed using EPC-7 L/M patch-clamp amplifier.
NMDA-activated currents: The currents were filtered at 3 kHz (three-pole active Bessel filter) digitally sampled at the rate 6000 μs per point for NMDA activated currents. NMDA-induced transmembrane currents were measured in the presence of 10 μM glycine and 300 μM L-aspartate in the control and test solutions. The currents were recorded at holding potential −70 mV.
Calculations: The inhibition of current at 1 μM of the substance was averaged at least for 4 cells. The effect of substance was measured as the mean ratio I/Io where I was the current under the action of substance and Io was the current in control conditions.

GSK3β = molecular target: T1, GSK3β (Homo sapiens, UniProt P49841); experiment: Evaluation of GSK3β activity: inhibition of purified GSK3β, [γ-32P]ATP / GS-2 peptide filter assay; format: biochemical; conditions: for IC50: purified GSK3β expressed in Sf9 cells, 15 μM ATP, GS-2 peptide substrate, 30 min at 30° C.; for inhibiting activity on GSK3β activity (in words): summary of Table 1
T1 construct: made in house; host or cells: insect Sf9 cells
Experimental: Compounds were evaluated for inhibition against purified GSK3β. GSK3β was expressed in and purified from insect Sf9 cells. Compounds (10 μM) were assayed; following a 1/100 dilution of the enzyme in 1 mg/ml BSA, 10 mM DTT, with 5 μl of 40 μM GS-2 peptide as a substrate, in a buffer, in the presence of 15 μM [γ-^32P]ATP (3000 Ci/mmol; 1 mCi/ml) in a final volume of 30 μl. After 30-min incubation at 30° C., 25-μl aliquots of supernatant were spotted onto 2.5×3 cm pieces of Whatman P81 phosphocellulose paper, and, 20 s later, the filters were washed five times (for at least 5 min each time) in a solution of 10 ml of phosphoric acid/liter of water. The wet filters were counted in the presence of 1 ml of scintillation fluid.

MPTP-treated mice = experiment: Anti-Parkinsonian activity in MPTP-treated mice with a sub threshold dose of L-DOPA (motor activity counts); format: in vivo, C57 BL/6 mice; conditions: for reversal of the motor deficits of MPTP-treated mice (in words): 3 mg/kg, combined with a sub-threshold (inactive) dose of L-Dopa; for LOCOMOTION / REARING / TOTAL ACTIVITY: MPTP-treated mice (2×40 mg/kg s.c.), compound 3 mg/kg orally + 5 mg/kg L-Dopa s.c., counts with Vehicle (no MPTP) = 100%
Experimental: Animals: six month old male C57 BL/6 mice, weighing 22-25 g were used. Following arrival at the laboratory, the mice were allowed to acclimatize for two weeks in a room with controlled temperature (21±1° C.), and a constant light-dark schedule (12 hr on/12 hr off, lights on between 06.00 and 18.00 hrs). Free access to food and water was maintained throughout. They were housed in groups of 12 animals and tested only during the hours of light (08.00-15.00 hrs). All testing was performed in a normally lighted room.
Behavioural measurements and apparatus: An automated device, consisting of macrolon rodent test cages (40×25×15 cm), each placed within two series of infra-red beams (at two different heights, one low and one high, 2 and 8 cm, respectively, above the surface of the sawdust, 1 cm deep), was used to measure spontaneous and/or drug-induced motor activity of 1-methyl 4-phenyl 1,2,3,6-tetrahydropyridine (MPTP) and control mice. The following parameters were measured: LOCOMOTION was measured by the low grid of infrared beams. Counts were registered only when the mouse in the horizontal plane, ambulating around the test-cage. REARING was registered throughout the time when at least one high level beam was interrupted, i.e. the number of counts registered was proportional to the amount of time spent rearing. TOTAL ACTIVITY was measured by a sensor (a pick-up similar to a gramophone needle, mounted on a lever with a counterweight) with which the test cage was constantly in contact. The sensor registered all types of vibration received from the test cage, such as those produced both by locomotion and rearing as well as shaking, tremors, scratching and grooming.
Behavioral measurements (locomotion, rearing and total activity): Twelve days after MPTP injections (2×40 mg/kg, s.c., 24 hr interval), the mice were administered orally with the different compounds at 3 mg/kg or vehicle (0.1% Tween-80 in 1% methylcellulose) and immediately thereafter placed in the activity test chambers and their motor behaviors were monitored for 60 min. After 60 min, the mice were injected with 5 mg/kg L-Dopa (s.c) and then replaced in the test chamber and activity measurements maintained for an additional 300 min.
Table 2 presents the locomotion, rearing and total activity counts of MPTP-treated and control mice administered either tested substances or vehicle administered with a sub threshold dose of L-Dopa.

T1 sequence (P49841 whole entry, species assumed): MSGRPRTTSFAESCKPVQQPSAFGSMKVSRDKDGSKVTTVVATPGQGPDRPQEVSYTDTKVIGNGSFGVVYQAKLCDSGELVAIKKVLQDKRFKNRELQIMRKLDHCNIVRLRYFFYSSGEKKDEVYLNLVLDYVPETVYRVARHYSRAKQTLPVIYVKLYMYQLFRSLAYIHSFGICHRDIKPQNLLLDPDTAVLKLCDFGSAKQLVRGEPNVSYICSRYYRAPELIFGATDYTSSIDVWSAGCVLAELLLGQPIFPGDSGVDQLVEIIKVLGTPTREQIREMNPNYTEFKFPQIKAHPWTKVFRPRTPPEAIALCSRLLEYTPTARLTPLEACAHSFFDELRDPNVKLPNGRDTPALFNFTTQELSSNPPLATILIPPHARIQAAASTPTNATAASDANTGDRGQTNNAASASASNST

| SMILES | IC50 (GSK3β) [µM] | inhibiting activity on GSK3β activity (in words) (GSK3β) | % Inhibition Peak Current (NMDA-activated currents) [%] | % Inhibition Steady State Current (NMDA-activated currents) [%] | blocking activity on NMDA-activated currents (in words) (NMDA-activated currents) | reversal of the motor deficits of MPTP-treated mice (in words) (MPTP-treated mice) | LOCOMOTION (MPTP-treated mice) [%] | REARING (MPTP-treated mice) [%] | TOTAL ACTIVITY (MPTP-treated mice) [%] |
| --- | --- | --- | --- | --- | --- | --- | --- | --- | --- |
| COc1ccc2[nH]cc(CCNc3ccccc3[N+](=O)[O-])c2c1 [N-(2-Nitrophenyl)-5-methoxytryptamine] | 14.1 | significant inhibiting activity | 78 | 77.3 | significant blocking activity | significantly reversed the motor deficits | 44 | 90 | 73 |
| O=C(O)c1cc([N+](=O)[O-])ccc1NCCc1c[nH]c2ccccc12 [N-(2-Carboxy-4-nitrophenyl)-tryptamine] | 14.2 | significant inhibiting activity | 76.7 | 70.4 | significant blocking activity |  | 16 | 25 | 45 |
| N#Cc1ccc(NCCC(=O)c2ccccc2N)c([N+](=O)[O-])c1 [2-(2-aminobenzoyl)-N-2-nitro-4-cyano-phenylethylamine] | 29.3 | significant inhibiting activity | 85.95 | 87.24 |  |  | 17 | 29 | 46 |

Second part, led by results:

| IC50 (GSK3β) [µM] | inhibiting activity on GSK3β activity (in words) (GSK3β) | SMILES | % Inhibition Peak Current (NMDA-activated currents) [%] | % Inhibition Steady State Current (NMDA-activated currents) [%] | blocking activity on NMDA-activated currents (in words) (NMDA-activated currents) | reversal of the motor deficits of MPTP-treated mice (in words) (MPTP-treated mice) | LOCOMOTION (MPTP-treated mice) [%] | REARING (MPTP-treated mice) [%] | TOTAL ACTIVITY (MPTP-treated mice) [%] |
| --- | --- | --- | --- | --- | --- | --- | --- | --- | --- |
| 9.9 | significant inhibiting activity | O=[N+]([O-])c1ccccc1NCCc1c[nH]c2ccccc12 [N-(2-Nitrophenyl)-tryptamine] | 90.93 | 66.83 | significant blocking activity | significantly reversed the motor deficits | 53 | 100 | 90 |
| 12.7 | significant inhibiting activity | N#Cc1cc([N+](=O)[O-])ccc1NCCc1c[nH]c2ccccc12 [N-(2-cyano-4-nitrophenyl)-tryptamine] | 83.1 | 82.44 | significant blocking activity | significantly reversed the motor deficits | 52 | 98 | 73 |
| 21.7 | significant inhibiting activity | COc1ccc2[nH]cc(CCNc3ccc(C(=O)O)cc3[N+](=O)[O-])c2c1 [N-(4-Carboxy-2-nitrophenyl)-5-methoxytryptamine] | 89.92 | 74.14 | significant blocking activity |  | 22 | 30 | 46 |
